Assays:
Type in all cases: in vivo
[1] = system: blackgrass (Alopecurus myosuroides); assay: Postemergence herbicidal activity, blackgrass; conditions: foliar spray, visual after 2 weeks, 0 no injury, 100 complete kill
Outline: (§1)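 Spray solutions in a carrier of acetone, water, isopropanol, DMSO, crop oil concentrate and Triton X-155 were applied to young plants (first–second true leaf); 1 ppm gave about 1 g/ha. Two weeks later, damage compared with untreated plants was rated from 0 to 100% kill.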

[2] = system: wild poinsettia (Euphorbia heterophylla); assay: Preemergence herbicidal activity, wild poinsettia; conditions: soil spray, visual after 3 weeks, 0 no injury, 100 complete kill or no germination
Outline: (§2)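 Application was to bare soil of seeded pots at rates no higher than 4.48 kg/ha. Three weeks on, plant condition was compared visually with untreated pots and expressed as percent injury.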

[3] = system: wild buckwheat (Polygonum convolvulus); assay: Postemergence herbicidal activity, wild buckwheat; conditions: foliar spray, visual after 2 weeks, 0 no injury, 100 complete kill
Outline: as §1

[4] = system: giant foxtail (Setaria faberi); assay: Postemergence herbicidal activity, giant foxtail; conditions: foliar spray, visual after 2 weeks, 0 no injury, 100 complete kill
Outline: as §1

[5] = system: lambsquarters (Chenopodium album); assay: Postemergence herbicidal activity, lambsquarters; conditions: foliar spray, visual after 2 weeks, 0 no injury, 100 complete kill
Outline: as §1

[6] = system: pigweed (Amaranthus retroflexus); assay: Preemergence herbicidal activity, pigweed; conditions: soil spray, visual after 3 weeks, 0 no injury, 100 complete kill or no germination
Outline: as §2

[7] = system: crabgrass (Digitaria sanguinalis); assay: Preemergence herbicidal activity, crabgrass; conditions: soil spray, visual after 3 weeks, 0 no injury, 100 complete kill or no germination
Outline: as §2

[8] = system: Rox orange sorghum (Sorghum bicolor); assay: Postemergence herbicidal activity, Rox orange sorghum; conditions: foliar spray, visual after 2 weeks, 0 no injury, 100 complete kill
Outline: as §1

wild oats (Avena fatua) [9] = assay: Preemergence herbicidal activity, wild oats; conditions: soil spray, visual after 3 weeks, 0 no injury, 100 complete kill or no germination
Outline: as §2

viola (Viola tricolor) = assay: Postemergence herbicidal activity, viola; conditions: foliar spray, visual after 2 weeks, 0 no injury, 100 complete kill
Outline: as §1

[10] = system: blackgrass (Alopecurus myosuroides); assay: Preemergence herbicidal activity, blackgrass; conditions: soil spray, visual after 3 weeks, 0 no injury, 100 complete kill or no germination
Outline: as §2

[11] = system: lambsquarters (Chenopodium album); assay: Preemergence herbicidal activity, lambsquarters; conditions: soil spray, visual after 3 weeks, 0 no injury, 100 complete kill or no germination
Outline: as §2

wild oats (Avena fatua) [12] = assay: Postemergence herbicidal activity, wild oats; conditions: foliar spray, visual after 2 weeks, 0 no injury, 100 complete kill
Outline: as §1

[13] = system: Rox orange sorghum (Sorghum bicolor); assay: Preemergence herbicidal activity, Rox orange sorghum; conditions: soil spray, visual after 3 weeks, 0 no injury, 100 complete kill or no germination
Outline: as §2

[14] = system: cocklebur (Xanthium strumarium); assay: Postemergence herbicidal activity, cocklebur; conditions: foliar spray, visual after 2 weeks, 0 no injury, 100 complete kill
Outline: as §1

[15] = system: giant foxtail (Setaria faberi); assay: Preemergence herbicidal activity, giant foxtail; conditions: soil spray, visual after 3 weeks, 0 no injury, 100 complete kill or no germination
Outline: as §2

[16] = system: morningglory (Ipomoea hederacea); assay: Preemergence herbicidal activity, morningglory; conditions: soil spray, visual after 3 weeks, 0 no injury, 100 complete kill or no germination
Outline: as §2

[17] = system: chickweed (Stellaria media); assay: Postemergence herbicidal activity, chickweed; conditions: foliar spray, visual after 2 weeks, 0 no injury, 100 complete kill
Outline: as §1

[18] = system: velvetleaf (Abutilion theophrasti); assay: Preemergence herbicidal activity, velvetleaf; conditions: soil spray, visual after 3 weeks, 0 no injury, 100 complete kill or no germination
Outline: as §2

[19] = system: pigweed (Amaranthus retroflexus); assay: Postemergence herbicidal activity, pigweed; conditions: foliar spray, visual after 2 weeks, 0 no injury, 100 complete kill
Outline: as §1

[20] = system: cocklebur (Xanthium strumarium); assay: Preemergence herbicidal activity, cocklebur; conditions: soil spray, visual after 3 weeks, 0 no injury, 100 complete kill or no germination
Outline: as §2

[21] = system: velvetleaf (Abutilion theophrasti); assay: Postemergence herbicidal activity, velvetleaf; conditions: foliar spray, visual after 2 weeks, 0 no injury, 100 complete kill
Outline: as §1

[22] = system: morningglory (Ipomoea hederacea); assay: Postemergence herbicidal activity, morningglory; conditions: foliar spray, visual after 2 weeks, 0 no injury, 100 complete kill
Outline: as §1

[23] = system: barnyardgrass (Echinochloa crus-galli); assay: Preemergence herbicidal activity, barnyardgrass; conditions: soil spray, visual after 3 weeks, 0 no injury, 100 complete kill or no germination
Outline: as §2

COc1cc(OC)n2nc(NS(=O)(=O)c3c(OC)csc3Cl)nc2n1 [Compound 19]
50%: XANST preemergence injury score 0-100 ([20]; 8.8 g/Ha)
70%: ALOMY postemergence injury score 0-100 ([1]; 15.6 ppm)
80%: ABUTH postemergence injury score 0-100 ([21]; 15.6 ppm) | IPOHE postemergence injury score 0-100 ([22]; 15.6 ppm)
90%: EPHHL preemergence injury score 0-100 ([2]; 8.8 g/Ha) | CHEAL preemergence injury score 0-100 ([11]; 8.8 g/Ha) | IPOHE preemergence injury score 0-100 ([16]; 8.8 g/Ha)
75%: AMARE preemergence injury score 0-100 ([6]; 8.8 g/Ha)
95%: POLCO postemergence injury score 0-100 ([3]; 15.6 ppm) | ALOMY preemergence injury score 0-100 ([10]; 8.8 g/Ha) | SORBI preemergence injury score 0-100 ([13]; 8.8 g/Ha) | XANST postemergence injury score 0-100 ([14]; 15.6 ppm) | STEME postemergence injury score 0-100 ([17]; 15.6 ppm) | ABUTH preemergence injury score 0-100 ([18]; 8.8 g/Ha) | ECHCG preemergence injury score 0-100 ([23]; 8.8 g/Ha)
100%: SETFA postemergence injury score 0-100 ([4]; 15.6 ppm) | CHEAL postemergence injury score 0-100 ([5]; 15.6 ppm) | DIGSA preemergence injury score 0-100 ([7]; 8.8 g/Ha) | SORBI postemergence injury score 0-100 ([8]; 15.6 ppm) | AVEFA preemergence injury score 0-100 (wild oats (Avena fatua) [9]; 8.8 g/Ha) | VIOTR postemergence injury score 0-100 (viola (Viola tricolor); 15.6 ppm) | AVEFA postemergence injury score 0-100 (wild oats (Avena fatua) [12]; 15.6 ppm) | SETFA preemergence injury score 0-100 ([15]; 8.8 g/Ha) | AMARE postemergence injury score 0-100 ([19]; 15.6 ppm)

COc1cscc1S(=O)(=O)Nc1nc2c(C)cnc(OC)n2n1 [Compound 17]
60%: EPHHL preemergence injury score 0-100 ([2]; 35 g/Ha) | POLCO postemergence injury score 0-100 ([3]; 31.3 ppm) | SORBI preemergence injury score 0-100 ([13]; 35 g/Ha) | SETFA preemergence injury score 0-100 ([15]; 35 g/Ha)
100%: CHEAL postemergence injury score 0-100 ([5]; 31.3 ppm) | ALOMY preemergence injury score 0-100 ([10]; 35 g/Ha) | CHEAL preemergence injury score 0-100 ([11]; 35 g/Ha)
0%: IPOHE preemergence injury score 0-100 ([16]; 35 g/Ha)
30%: DIGSA preemergence injury score 0-100 ([7]; 35 g/Ha) | AVEFA preemergence injury score 0-100 (wild oats (Avena fatua) [9]; 35 g/Ha) | ABUTH preemergence injury score 0-100 ([18]; 35 g/Ha) | ECHCG preemergence injury score 0-100 ([23]; 35 g/Ha)
85%: AVEFA postemergence injury score 0-100 (wild oats (Avena fatua) [12]; 31.3 ppm) | ABUTH postemergence injury score 0-100 ([21]; 31.3 ppm)
90%: SETFA postemergence injury score 0-100 ([4]; 31.3 ppm) | SORBI postemergence injury score 0-100 ([8]; 31.3 ppm) | STEME postemergence injury score 0-100 ([17]; 31.3 ppm)
95%: XANST postemergence injury score 0-100 ([14]; 31.3 ppm) | AMARE postemergence injury score 0-100 ([19]; 31.3 ppm)
70%: ALOMY postemergence injury score 0-100 ([1]; 31.3 ppm) | AMARE preemergence injury score 0-100 ([6]; 35 g/Ha) | VIOTR postemergence injury score 0-100 (viola (Viola tricolor); 31.3 ppm) | XANST preemergence injury score 0-100 ([20]; 35 g/Ha) | IPOHE postemergence injury score 0-100 ([22]; 31.3 ppm)

COc1csc(Cl)c1S(=O)(=O)Nc1nc2c(C)cnc(OC)n2n1 [Compound 21]
90%: VIOTR postemergence injury score 0-100 (viola (Viola tricolor); 62.5 ppm) | XANST postemergence injury score 0-100 ([14]; 62.5 ppm)
30%: ALOMY postemergence injury score 0-100 ([1]; 62.5 ppm) | ECHCG preemergence injury score 0-100 ([23]; 8.8 g/Ha)
100%: POLCO postemergence injury score 0-100 ([3]; 62.5 ppm) | CHEAL postemergence injury score 0-100 ([5]; 62.5 ppm) | SORBI postemergence injury score 0-100 ([8]; 62.5 ppm) | STEME postemergence injury score 0-100 ([17]; 62.5 ppm) | AMARE postemergence injury score 0-100 ([19]; 62.5 ppm) | ABUTH postemergence injury score 0-100 ([21]; 62.5 ppm)
50%: SETFA postemergence injury score 0-100 ([4]; 62.5 ppm) | XANST preemergence injury score 0-100 ([20]; 8.8 g/Ha)
80%: ABUTH preemergence injury score 0-100 ([18]; 8.8 g/Ha) | IPOHE postemergence injury score 0-100 ([22]; 62.5 ppm)
70%: AVEFA preemergence injury score 0-100 (wild oats (Avena fatua) [9]; 8.8 g/Ha) | ALOMY preemergence injury score 0-100 ([10]; 8.8 g/Ha) | CHEAL preemergence injury score 0-100 ([11]; 8.8 g/Ha) | SORBI preemergence injury score 0-100 ([13]; 8.8 g/Ha) | SETFA preemergence injury score 0-100 ([15]; 8.8 g/Ha)
60%: EPHHL preemergence injury score 0-100 ([2]; 8.8 g/Ha) | AMARE preemergence injury score 0-100 ([6]; 8.8 g/Ha)
75%: AVEFA postemergence injury score 0-100 (wild oats (Avena fatua) [12]; 62.5 ppm)
40%: DIGSA preemergence injury score 0-100 ([7]; 8.8 g/Ha) | IPOHE preemergence injury score 0-100 ([16]; 8.8 g/Ha)

— patent US6645918B1, “N-([1,2,4]triazoloazinyl)thiophenesulfonamide compounds and their use as herbicides” (Dow AgroSciences LLC, priority 2000, dated 2003)
